Data reported in patent US20040034082A1, “Utilization of pyrazoline derivatives in the preparation of a medicament for the prevention and/or treatment of proliferative cell diseases” (priority 2001, published 2004).

melting point [°C] | SMILES
172 to 176 | Cc1ccc(C2CC(C(=O)O)=NN2c2ccc(S(N)(=O)=O)cc2)cc1 (stereo not shown) [Example 34]
157 to 164 | NS(=O)(=O)c1ccc(N2N=C(C(=O)O)CC2c2ccccc2)cc1 (stereo not shown) [Example 35]
202 to 205 | Cc1ccc(C2CC(C(=O)O)=NN2c2ccc(S(C)(=O)=O)cc2)cc1 (stereo not shown) [Example 36]
192 to 197 | COC(=O)C1=NN(c2ccc(S(N)(=O)=O)cc2)C(c2ccc(C)cc2)C1 (stereo not shown) [Example 37]
84 to 90 | COC(=O)C1=NN(c2ccc(S(N)(=O)=O)cc2)C(c2ccccc2)C1 (stereo not shown) [Example 38]
155 to 160 | COC(=O)C1=NN(c2ccc(S(C)(=O)=O)cc2)C(c2ccc(C)cc2)C1 (stereo not shown) [Example 39]
200 to 205 | NC(=O)C1=NN(c2ccc(S(N)(=O)=O)cc2)C(c2ccccc2)C1 (stereo not shown) [Example 40]
210 to 215 | Cc1ccc(C2CC(C(N)=O)=NN2c2ccc(S(N)(=O)=O)cc2)cc1 (stereo not shown) [Example 41]
128 to 132 | Cc1ccc(C2CC(C(N)=O)=NN2c2ccc(S(C)(=O)=O)cc2)cc1 (stereo not shown) [Example 42]
162 to 164 | Cc1ccc(C2CC(C#N)=NN2c2ccc(S(C)(=O)=O)cc2)cc1 (stereo not shown) [Example 43]
152 to 155 | Cc1ccc(C2CC(C(F)(F)F)=NN2c2ccc(S(N)(=O)=O)cc2)cc1C (stereo not shown) [Example 44]
170 to 175 | COc1ccc(C2CC(C(F)(F)F)=NN2c2ccc(S(N)(=O)=O)cc2)cc1C (stereo not shown) [Example 45]
108 to 114 | COc1ccc(C2CC(C(F)(F)F)=NN2c2ccc(S(N)(=O)=O)cc2)cc1F (stereo not shown) [Example 46]
157 to 159 | COc1ccc(C2CC(C(F)(F)F)=NN2c2ccc(S(N)(=O)=O)cc2)c(F)c1 (stereo not shown) [Example 47]
121 to 126 | COc1ccc(C2CC(C(F)(F)F)=NN2c2ccc(S(N)(=O)=O)cc2)c(OC)c1 (stereo not shown) [Example 48]
179 to 182 | COc1cc(F)ccc1C1CC(C(F)(F)F)=NN1c1ccc(S(N)(=O)=O)cc1 (stereo not shown) [Example 49]
181 to 183 | Cc1ccc(C2CC(C(F)F)=NN2c2ccc(S(N)(=O)=O)cc2)c(C)c1 (stereo not shown) [Example 50]
159 to 161 | NS(=O)(=O)c1ccc(N2N=C(C(F)(F)F)CC2c2ccc(F)c(F)c2F)cc1 (stereo not shown) [Example 51]
167 to 169 | NS(=O)(=O)c1ccc(N2N=C(C(F)(F)F)CC2c2ccc(F)cc2Cl)cc1 (stereo not shown) [Example 52]
170 to 173 | NS(=O)(=O)c1ccc(N2N=C(C(F)(F)F)CC2c2ccc(C(F)(F)F)cc2F)cc1 (stereo not shown) [Example 53]

melting point [°C] | SMILES
212 to 214 | NS(=O)(=O)c1ccc(N2N=C(C(F)(F)F)CC2c2ccc(C(F)(F)F)cc2C(F)(F)F)cc1 (stereo not shown) [Example 54]
193 to 195 | Cc1c(F)cccc1C1CC(C(F)(F)F)=NN1c1ccc(S(N)(=O)=O)cc1 (stereo not shown) [Example 55]
148 to 150 | COc1ccc(C2CC(C(F)(F)F)=NN2c2ccc(S(N)(=O)=O)cc2)c(C)c1 (stereo not shown) [Example 56]
157 to 160 | NS(=O)(=O)c1ccc(N2N=C(C(F)F)CC2c2ccc(F)cc2F)cc1 (stereo not shown) [Example 57]
174 to 177 | NS(=O)(=O)c1ccc(N2N=C(C(F)(F)F)CC2c2ccc(F)cc2C(F)(F)F)cc1 (stereo not shown) [Example 58]
157 to 159 | NS(=O)(=O)c1ccc(N2N=C(C(F)(F)F)CC2c2ccccc2Cl)cc1 (stereo not shown) [Example 60]
180 to 185 | NS(=O)(=O)c1ccc(N2N=C(C(F)(F)F)CC2c2ccc(Cl)cc2F)cc1 (stereo not shown) [Example 61]
154 to 160 | Cc1cc(F)ccc1C1CC(C(F)(F)F)=NN1c1ccc(S(N)(=O)=O)cc1 (stereo not shown) [Example 62]
166 to 167 | Cc1ccc(C2CC(C(F)(F)F)=NN2c2ccc(S(N)(=O)=O)cc2)c(F)c1 (stereo not shown) [Example 63]
117 to 121 | CS(=O)(=O)c1ccc(C2CC(C(F)(F)F)=NN2c2ccc(Cl)cc2)cc1 (stereo not shown) [Example 65]
114 to 115 | CS(=O)(=O)c1ccc(C2CC(C(F)(F)F)=NN2c2ccccc2)cc1 (stereo not shown) [Example 66]
98 to 99 | CS(=O)(=O)c1ccc(C2CC(C(F)(F)F)=NN2c2ccccc2F)cc1 (stereo not shown) [Example 67]
104 to 108 | Cc1cc(Cl)ccc1N1N=C(C(F)(F)F)CC1c1ccc(S(C)(=O)=O)cc1 (stereo not shown) [Example 68]
116 to 117 | CS(=O)(=O)c1ccc(C2CC(C(F)(F)F)=NN2c2cccc(F)c2)cc1 (stereo not shown) [Example 69]
114 to 116 | Cc1cccc(N2N=C(C(F)(F)F)CC2c2ccc(S(C)(=O)=O)cc2)c1 (stereo not shown) [Example 70]
132 to 133 | Cc1ccc(N2N=C(C(F)(F)F)CC2c2ccc(S(C)(=O)=O)cc2)c(C)c1 (stereo not shown) [Example 71]
103 to 106 | CS(=O)(=O)c1ccc(C2CC(C(F)(F)F)=NN2c2ccc(Cl)cc2Cl)cc1 (stereo not shown) [Example 74]
138 to 140 | NS(=O)(=O)c1ccc(C2CC(C(F)(F)F)=NN2c2ccc(F)cc2)cc1 (stereo not shown) [Example 76]
132 to 135 | CC1=NN(c2ccccc2)C(c2ccc(S(C)(=O)=O)cc2)C1 (stereo not shown) [Example 77]
155 to 160 | CS(=O)(=O)c1ccc(C2CC=NN2c2ccc(F)cc2)cc1 (stereo not shown) [Example 78]
